Activity calls are given as the source filed them. The rule behind the calls is not given here.
What was measured:
[1] = target: Cyclin-dependent kinase 2/cyclin A (Homo sapiens, UniProt P24941); test: Inhibition of CDK2/cyclin A (unknown origin) using […] incubated for 40 mins in presence of ATP by Kinase-Glo assay; assay type: protein-complex assay
[2] = target: Cyclin-dependent kinase 4/cyclin D1 (Homo sapiens, UniProt P11802); test: Inhibition of CDK4/cyclin D (unknown origin) using […] incubated for 40 mins in presence of ATP by Kinase-Glo assay; assay type: protein-complex assay
[3] = target: Cyclin-dependent kinase 5/CDK5 activator 1 (Homo sapiens, UniProt Q00535); test: Inhibition of CDK5/p35 (unknown origin) using […] incubated for 40 mins in presence of ATP by Kinase-Glo assay; assay type: protein-complex assay
U-87 MG = test: Antiproliferative activity against human U-87 MG cells assessed as cell growth inhibition incubated for 48 hrs by MTT assay; assay type: functional, cell-based, U-87MG ATCC
A2780 = test: Antiproliferative activity against human A2780 cells assessed as cell growth inhibition incubated for 48 hrs by MTT assay; assay type: functional, cell-based; conditions: A2780, 48 h
[4] = target: Cyclin-dependent kinase 2 (Homo sapiens) (UniProt P24941); test: Inhibition of CDK2 in human HCT-116 cells assessed as reduction in Rb phosphorylation at Ser780 incubated for 24 hr s by Western blot analysis; assay type: cell-based; conditions: dose <= 0.8 µM
HCT-116 [5] = test: Induction of cell cycle arrest in human HCT-116 cells assessed as accumulation at sub-G1 phase at 0.4 uM incubated for 24 hrs by PI staining based flow cytometry (reference value: 2.45 +/- 0.49 %); assay type: functional
HCT-116 [6] = test: Induction of cell cycle arrest in human HCT-116 cells assessed as accumulation at G1/G0 phase at 0.4 uM incubated for 24 hrs by PI staining based flow cytometry (reference value: 58.29 +/- 2.01 %); assay type: functional
HCT-116 [7] = test: Induction of cell cycle arrest in human HCT-116 cells assessed as accumulation at S phase at 0.4 uM incubated for 24 hrs by PI staining based flow cytometry (reference value: 20.82 +/- 1.24 %); assay type: functional
HCT-116 [8] = test: Induction of cell cycle arrest in human HCT-116 cells assessed as accumulation at G2/M phase at 0.8 uM incubated for 24 hrs by PI staining based flow cytometry (reference value: 20.6 +/- 3.38 %); assay type: functional
HeLa [9] = test: Induction of cell cycle arrest in human HeLa cells assessed as accumulation at sub-G1 phase at 0.9 uM incubated for 24 hrs by PI staining based flow cytometry (reference value: 1.89 +/- 0.56 %); assay type: functional
HeLa [10] = test: Induction of cell cycle arrest in human HeLa cells assessed as accumulation at G1/G0 phase at 0.9 uM incubated for 24 hrs by PI staining based flow cytometry (reference value: 57.63 +/- 1.7 %); assay type: functional
HeLa [11] = test: Induction of cell cycle arrest in human HeLa cells assessed as accumulation at S phase at 0.9 uM incubated for 24 hrs by PI staining based flow cytometry (reference value: 17.84 +/- 1.89 %); assay type: functional
HeLa [12] = test: Induction of cell cycle arrest in human HeLa cells assessed as accumulation at G1/G0 phase at 1.8 uM incubated for 24 hrs by PI staining based flow cytometry (reference value: 57.63 +/- 1.7 %); assay type: functional
HeLa [13] = test: Induction of cell cycle arrest in human HeLa cells assessed as accumulation at G1/G0 phase at 3.6 uM incubated for 24 hrs by PI staining based flow cytometry (reference value: 57.63 +/- 1.7 %); assay type: functional
HCT-116 [14] = test: Induction of cell cycle arrest at G2/M phase in human HCT-116 cells assessed as decrease in p-Cdc2 level incubated for 48 hrs by Western blot analysis; assay type: functional, cell-based; conditions: dose <= 0.8 µM
HCT-116 [15] = test: Induction of cell cycle arrest at G2/M phase in human HCT-116 cells assessed as decrease in cyclin B1 level incubated for 48 hrs by Western blot analysis; assay type: functional, cell-based; conditions: dose <= 0.8 µM
HeLa [16] = test: Induction of cell cycle arrest at G2/M phase in human HeLa cells assessed as decrease in cyclin B1 level incubated for 48 hrs by Western blot analysis; assay type: functional, cell-based; conditions: dose <= 3.6 µM
HeLa [17] = test: Induction of cell cycle arrest at G2/M phase in human HeLa cells assessed as decrease in cyclin B1 level at 1.8 uM by Western blot analysis; assay type: functional, cell-based; conditions: time <= 48.0 hrs
HCT-116 [18] = test: Induction of apoptosis in human HCT-116 cells assessed as viable cells at 0.2 uM incubated for 24 hrs by PI staining based flow cytometry (reference value: 79.4 %); assay type: functional; conditions: read-out: Activity
HCT-116 [19] = test: Induction of apoptosis in human HCT-116 cells assessed as late apoptotic cells at 0.2 uM incubated for 24 hrs by PI staining based flow cytometry (reference value: 1.11 %); assay type: functional
HCT-116 [20] = test: Induction of apoptosis in human HCT-116 cells assessed as viable cells at 0.4 uM incubated for 24 hrs by PI staining based flow cytometry (reference value: 79.4 %); assay type: functional; conditions: read-out: Activity
HeLa [21] = test: Induction of apoptosis in human HeLa cells assessed as necrotic cells at 1.8 uM incubated for 24 hrs by PI staining based flow cytometry (reference value: 25.5 %); assay type: functional
HeLa [22] = test: Induction of apoptosis in human HeLa cells assessed as late apoptotic cells at 3.6 uM incubated for 24 hrs by PI staining based flow cytometry (reference value: 3.85 %); assay type: functional
HeLa [23] = test: Effect on Bax level in human HeLa cells upto 3.6 uM incubated for 24 hrs by Western blot analysis; assay type: functional, cell-based
HCT-116 [24] = test: Induction of apoptosis in human HCT-116 cells assessed as increase in cleaved PARP level upto 0.8 uM incubated for 24 hrs by Western blot analysis; assay type: functional, cell-based
HeLa [25] = test: Induction of apoptosis in human HeLa cells assessed as increase in cleaved PARP level upto 3.6 uM incubated for 24 hrs by Western blot analysis; assay type: functional, cell-based
[26] = AUC (0 to t) in Sprague-Dawley rat at 2 mg/kg, iv measured for 36 hrs by MRM analysis; assay type: ADME, organism-based; conditions: in vivo
[27] = MRT (0 to t) in Sprague-Dawley rat at 2 mg/kg, iv measured for 36 hrs by MRM analysis; assay type: ADME, organism-based; conditions: in vivo
[28] = Half life in Sprague-Dawley rat at 2 mg/kg, iv measured for 36 hrs by MRM analysis; assay type: ADME, organism-based; conditions: in vivo
[29] = Tmax in Sprague-Dawley rat at 2 mg/kg, iv measured for 36 hrs by MRM analysis; assay type: ADME, organism-based; conditions: in vivo
[30] = AUC (0 to t) in Sprague-Dawley rat at 10 mg/kg, po measured for 36 hrs by MRM analysis; assay type: ADME, organism-based; conditions: in vivo
[31] = MRT (0 to infinity) in Sprague-Dawley rat at 10 mg/kg, po measured for 36 hrs by MRM analysis; assay type: ADME, organism-based; conditions: in vivo
[32] = Apparent volume of distribution in Sprague-Dawley rat at 10 mg/kg, po measured for 36 hrs by MRM analysis; assay type: ADME, organism-based; conditions: in vivo
[33] = Toxicity in Balb/c-nu nude mouse xenografted with human HCT-116 cells assessed as toxicity in heart at 35 to 70 mg/kg/day, po treated for 30 days by H and E staining based analysis; assay type: organism-based; conditions: in vivo, 720 h, dose 35-70 mg/kg/day, time 30 day
[34] = Toxicity in Sprague-Dawley rat allografted with rat C6 cells assessed as obvious signs of toxicity at 70 mg/kg/day, po treated for 2 weeks; assay type: organism-based; conditions: in vivo, 336 h

Chain of Cyclin-dependent kinase 4/cyclin D1 (P11802 whole entry): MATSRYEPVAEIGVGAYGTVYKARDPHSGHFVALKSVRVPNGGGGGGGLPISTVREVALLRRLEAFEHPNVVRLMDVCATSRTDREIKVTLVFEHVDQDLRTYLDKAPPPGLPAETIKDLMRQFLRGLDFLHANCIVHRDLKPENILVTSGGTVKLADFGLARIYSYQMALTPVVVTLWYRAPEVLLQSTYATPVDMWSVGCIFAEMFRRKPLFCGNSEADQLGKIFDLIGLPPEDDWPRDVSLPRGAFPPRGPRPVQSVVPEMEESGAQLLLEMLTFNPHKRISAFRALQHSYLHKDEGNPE
Chain of Cyclin-dependent kinase 4/cyclin D1 (P24385 whole entry, further chain): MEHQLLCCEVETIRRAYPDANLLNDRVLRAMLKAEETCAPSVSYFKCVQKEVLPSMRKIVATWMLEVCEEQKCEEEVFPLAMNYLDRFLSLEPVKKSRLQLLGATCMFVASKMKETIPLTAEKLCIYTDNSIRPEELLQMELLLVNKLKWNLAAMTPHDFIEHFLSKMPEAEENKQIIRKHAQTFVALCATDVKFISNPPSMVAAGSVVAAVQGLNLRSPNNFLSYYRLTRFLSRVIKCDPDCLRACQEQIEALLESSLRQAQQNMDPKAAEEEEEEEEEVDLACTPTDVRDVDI
Chain of Cyclin-dependent kinase 5/CDK5 activator 1 (Q00535 whole entry): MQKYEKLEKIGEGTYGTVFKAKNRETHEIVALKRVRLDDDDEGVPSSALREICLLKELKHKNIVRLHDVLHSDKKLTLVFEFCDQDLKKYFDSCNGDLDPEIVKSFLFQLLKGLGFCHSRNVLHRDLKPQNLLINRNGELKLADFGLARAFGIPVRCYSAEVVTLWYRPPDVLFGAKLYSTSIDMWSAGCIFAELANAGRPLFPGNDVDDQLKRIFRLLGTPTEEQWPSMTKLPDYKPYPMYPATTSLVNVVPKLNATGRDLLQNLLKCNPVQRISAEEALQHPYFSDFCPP
Chain of Cyclin-dependent kinase 5/CDK5 activator 1 (Q15078 whole entry, further chain): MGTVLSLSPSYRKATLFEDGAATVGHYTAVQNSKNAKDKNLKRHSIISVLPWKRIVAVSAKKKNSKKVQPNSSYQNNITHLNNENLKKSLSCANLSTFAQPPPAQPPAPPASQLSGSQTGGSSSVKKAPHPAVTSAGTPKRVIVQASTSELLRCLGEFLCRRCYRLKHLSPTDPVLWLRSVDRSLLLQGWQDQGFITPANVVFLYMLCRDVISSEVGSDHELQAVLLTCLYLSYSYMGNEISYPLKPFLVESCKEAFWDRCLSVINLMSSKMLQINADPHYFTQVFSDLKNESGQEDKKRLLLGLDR

Q: With Cc1cnc(Nc2ccc(S(N)(=O)=O)cc2)nc1Nc1nccs1 as the compound, how does the IC50 [1] read?
A: The IC50 was 4 nM.

Q: And the IC50 [2]?
A: The IC50 was 942 nM.

Q: What about the IC50 [3] of the same compound?
A: The IC50 was 119 nM.

Q: What about the IC50 (U-87 MG) of the same compound?
A: The IC50 was 1010 nM.

Q: What about the IC50 (A2780) of the same compound?
A: The IC50 was 22.2 µM.

Q: What about the inhibition [4] of the same compound?
A: Its inhibition is “Dose-dependent-effect”.

Q: What about the Activity (HCT-116 [5]) of the same compound?
A: The Activity was 1.91%.

Q: And the Activity (HCT-116 [6])?
A: The Activity was 44.9%.

Q: What about the Activity (HCT-116 [7]) of the same compound?
A: Its Activity is 22.25%.

Q: What about the Activity (HCT-116 [8]) of the same compound?
A: Its Activity is 37.16%.

Q: And the Activity (HeLa [9])?
A: Its Activity is 1.81%.

Q: And the Activity (HeLa [10])?
A: Its Activity is 52.88%.

Q: And the Activity (HeLa [11])?
A: The Activity was 21.67%.

Q: And the Activity (HeLa [12])?
A: The Activity was 50.55%.

Q: And the Activity (HeLa [13])?
A: The Activity was 39.16%.

Q: What about the Activity (HCT-116 [14]) of the same compound?
A: Its Activity is “Dose-dependent-effect”.

Q: What about the Activity (HCT-116 [15]) of the same compound?
A: Its Activity is “Dose-dependent-effect”.

Q: What about the Activity (HeLa [16]) of the same compound?
A: The Activity was “Dose-dependent-effect”.

Q: And the Activity (HeLa [17])?
A: Its Activity is “Time-dependent-effect”.

Q: What about the viability at 0.2 µM (HCT-116 [18]) of the same compound?
A: The viability at 0.2 µM was 63.1%.

Q: What about the Activity (HCT-116 [19]) of the same compound?
A: The Activity was 31.2%.

Q: What about the viability at 0.4 µM (HCT-116 [20]) of the same compound?
A: The viability at 0.4 µM was 54.4%.

Q: What about the Activity (HeLa [21]) of the same compound?
A: The Activity was 0.22%.

Q: What about the Activity (HeLa [22]) of the same compound?
A: Its Activity is 27.3%.

Q: What about the Activity (HeLa [23]) of the same compound?
A: The Activity was “No effect”.

Q: And the Activity (HCT-116 [24])?
A: Its Activity is “Active”.

Q: What about the Activity (HeLa [25]) of the same compound?
A: Its Activity is “Active”.

Q: What about the AUC(0-t) at 36 h [26] of the same compound?
A: The AUC(0-t) at 36 h was 33.5 ng·h/mL.

Q: What about the MRT last at 36 h [27] of the same compound?
A: The MRT last at 36 h was 2.7 h.

Q: And the half-life [28]?
A: The half-life was 270 min.

Q: What about the Tmax [29] of the same compound?
A: Its Tmax is 12 min.

Q: What about the AUC(0-t) at 36 h [30] of the same compound?
A: Its AUC(0-t) at 36 h is 143 ng·h/mL.

Q: And the MRT inf [31]?
A: The MRT inf was 7 h.

Q: And the Vz [32]?
A: Its Vz is 398.7 L/kg.

Q: And the Activity [33]?
A: Its Activity is “Non-toxic”.

Q: And the Activity [34]?
A: Its Activity is “Non-toxic”.

From ChEMBL document CHEMBL6096697, “Structure-Guided Discovery of Novel N4-(Substituted Thiazol-2-yl)-N2-(4-Substituted phenyl)pyrimidine-2,4-Diamines as Potent CDK2 and CDK9 Dual Inhibitors with High Oral Bioavailability” (J Med Chem, 2025)
